Results as given in patent publication US20230183808A1, “Methods of Detecting and Treating Cancers Characterized by Loss of miR15 and miR16 Expression” (priority 2020, published 2023).

Experiments:
[1] = system: miR-15a; experiment: miR-15a expression by qRT-PCR after 5-Aza-2′-deoxycytidine treatment; type: cell-based, human; conditions: 5 µM (MEG-01, THP-1, OCI-AML3) or 2.5 µM (U-937, MV4-11), 4 days; in a few cell lines; vs untreated; FIG. 5D
Protocol: (§1) FIGS. 5A-5F show genetic and epigenomic screening of AML cell lines. […] TBP was used as a loading control (TATA-binding protein). […] In FIGS. 5C and 5E, at least 3 clones are analyzed for each cell line. The CpG island is pictured and each vertical bar represent a single CpG (depicted by *) or a single non-CpG site. Black (CpG site) and grey (non-CpG site) squares represent methylated CpG and white squares represent unmethylated CpG.
(§2) Total RNA was isolated from human samples and cell lines using TRIzol (Invitrogen, Carlsbad, CA), following the provided instructions. For qRT-PCR, TaqMan miRNA assays (miR-15a#000389, miR-15b#000390, miR-16#000391, (Thermo Fisher Scientific, Waltham, MA)) were used to detect mature miRNAs. For all RNAs from AML patients, reverse transcription reactions were performed using the TaqMan miRNA Reverse Transcription Kit (Applied Biosystems, Foster City, CA) and a RT primer pool by pooling all miRNA-specific stem-loop primers of interest. […]
(§3) MEG-01, THP-1 and OCI-AML3 cells were treated with 5 µM 5-Aza-2′-deoxycytidine (5-Aza-dC) (Sigma-Aldrich, St. Louis, MO), whereas U-937 and MV4-11 cells were treated with 2.5 µM 5-Aza-dC. After 4 days of treatments (fresh drug was added every 24 hour), cells were harvested and total RNA was isolated and analyzed for qRT-PCR analysis. […]

[2] = system: miR-15b; experiment: miR-15b expression by qRT-PCR after 5-Aza-2′-deoxycytidine treatment; type: cell-based, human; conditions: 5 µM (MEG-01, THP-1, OCI-AML3) or 2.5 µM (U-937, MV4-11), 4 days; in a few cell lines; vs untreated; FIG. 5F
Protocol: as §1, §2, §3

For `Nc1ncn([C@H]2C[C@H](O)[C@@H](CO)O2)c(=O)n1` [5-Aza-dC, 5-Aza-2′-deoxycytidine], the “expression of silenced miR-15a after treatment” value [1] was “increased expression” and the “expression of silenced miR-15b after treatment” value [2] was “increased expression”.
